Experimental data as given in paper PMC6585716, “Protein catalyzed capture agents with tailored performance for in vitro and in vivo applications” (Biopolymers, 2017).
Like-named read-outs stand apart in the source and are kept apart here. One block for each molecule: values may come before it. Starred links: 1 amine or outer side, 2 acyl side, 3 side chain; linkers in the order of their positions; H or OH if unused. Positions of bridges follow the written chain, without caps; N, C: chain ends. Non-standard residues stand in square brackets, D forms with d. Residues, ends and D or L forms follow the SMILES beside them. Triazole bridges read from a SMILES are 1,4-linked. Chains are numbered I, II in the order given. *: point of attachment. X1 = O=C(CCCC[C@@H]1SC[C@@H]2NC(=O)N[C@@H]21)NCCCOCCOCCOCCCN*; Lys(N3) = [N-]=[N+]=NCCCC[C@H](N)C(=O)O; Suc = O=C(CCC(=O)[*:2])[*:1]; dPra = C#CC[C@@H](N)C(=O)O

What was measured:
in vivo = details: male, CD-1, mouse
[1] = pH 7.4
[2] = mouse, in vivo, ip, 5 mg/kg
[3] = In vivo pharmacokinetics in mice (IV or IP, parallel sampling); details: for AUC% Ext: male CD-1 mice
[4] = male, CD-1, mouse, plasma, ip, 5 mg/kg
[5] = male, CD-1, mouse, plasma, iv, 1 mg/kg

AUC(0-inf) (in vivo; ip, 5 mg/kg): 2420 ng·h/mL | AUC(0-t) (in vivo; ip, 5 mg/kg): 2170 ng·h/mL | Cmax (in vivo; ip, 5 mg/kg): 3210 ng/mL | Tmax (in vivo; ip, 5 mg/kg): 10.2 min | half-life (in vivo; ip, 5 mg/kg): 154 min | AUC(0-inf) (in vivo; iv, 1 mg/kg): 1110 ng·h/mL | AUC(0-t) (in vivo; iv, 1 mg/kg): 1050 ng·h/mL | Vd (in vivo; iv, 1 mg/kg): 0.16 L/kg | clearance (in vivo; iv, 1 mg/kg): 15 mL/min/kg | half-life (in vivo; iv, 1 mg/kg): 7 min | resistance to metabolic degradation by mouse liver microsomes (in words) [1]: high resistance to metabolic degradation | bioavailability [2]: 41%
Structure (SMILES): CC[C@H](C)[C@@H]1NC(=O)[C@H](CC(=O)O)NC(=O)[C@@H](NC(=O)[C@H](CC(N)=O)NC(=O)[C@@H]2CCCN2C(=O)[C@H](CCC(=O)O)NC(=O)[C@@H](NC(=O)CCC(=O)NCCCOCCOCCOCCCNC(=O)CCCC[C@@H]2SC[C@@H]3NC(=O)N[C@@H]32)C(C)C)CSSC[C@@H](C(=O)N[C@@H](Cc2ccccc2)C(=O)N[C@@H](CCC(=O)O)C(=O)N[C@@H](CCCNC(=N)N)C(=O)N[C@@H](CC(C)C)C(=O)N[C@@H](CCCCn2cc(C[C@@H](N)C(=O)N[C@H](CC(C)C)C(=O)N[C@H](Cc3ccccc3)C(=O)N[C@H](CCCNC(=N)N)C(=O)N[C@H](CCC(=O)O)C(=O)N[C@H](Cc3c[nH]c4ccccc34)C(N)=O)nn2)C(=O)O)NC(=O)[C@H](CCC(=O)O)NC(=O)[C@H](Cc2c[nH]c3ccccc23)NC(=O)[C@H](CCC(=O)O)NC(=O)[C@H](Cc2c[nH]c3ccccc23)NC(=O)[C@H](CCSC)NC(=O)[C@H](C(C)C)NC(=O)[C@H](Cc2c[nH]cn2)NC1=O [Bi‐LV] (I: {X1-Suc}-VEPNCDIHVMWEWECFERL[Lys(N3)]-OH / II: H-[dPra][dL][dF][dR][dE][dW]-NH2; disulfide I:5-I:15; triazole I:20-II:1)

Structure (SMILES): CC[C@@H](C)[C@@H](NC(=O)[C@@H](CCC(=O)O)NC(=O)[C@@H](CCC(=O)O)NC(=O)[C@H](N)Cc1cn(CCCC[C@H](NC(=O)[C@@H](Cc2c[nH]c3ccccc23)NC(=O)[C@@H](CCC(=O)O)NC(=O)[C@@H](CCCNC(=N)N)NC(=O)[C@@H](Cc2ccccc2)NC(=O)[C@@H](CC(C)C)NC(=O)[C@H](N)Cc2cn(CCCC[C@H](NC(=O)[C@H](CC(C)C)NC(=O)[C@H](CCCNC(=N)N)NC(=O)[C@H](CCC(=O)O)NC(=O)[C@H](Cc3ccccc3)NC(=O)[C@@H]3CSSC[C@H](NC(=O)[C@H](CC(N)=O)NC(=O)[C@@H]4CCCN4C(=O)[C@H](CCC(=O)O)NC(=O)[C@@H](NC(=O)CCC(=O)NCCCOCCOCCOCCCNC(=O)CCCC[C@@H]4SC[C@@H]5NC(=O)N[C@@H]54)C(C)C)C(=O)N[C@@H](CC(=O)O)C(=O)N[C@@H]([C@@H](C)CC)C(=O)N[C@@H](Cc4c[nH]cn4)C(=O)N[C@@H](C(C)C)C(=O)N[C@@H](CCSC)C(=O)N[C@@H](Cc4c[nH]c5ccccc45)C(=O)N[C@@H](CCC(=O)O)C(=O)N[C@@H](Cc4c[nH]c5ccccc45)C(=O)N[C@@H](CCC(=O)O)C(=O)N3)C(=O)O)nn2)C(=O)O)nn1)C(=O)N[C@H](CCCNC(=N)N)C(=O)N[C@H](CC(=O)O)C(N)=O [Tri‐LV] (I: {X1-Suc}-VEPNCDIHVMWEWECFERL[Lys(N3)]-OH / II: H-[dPra][dL][dF][dR][dE][dW][Lys(N3)]-OH / III: H-[dPra][dE][dE][dI][dR][dD]-NH2; disulfide I:5-I:15; triazole I:20-II:1, II:7-III:1)
AUC% Ext ([3]; IP, 5 mg/kg single dose, plasma): 2.04% | AUC% Ext ([3]; IV, 1 mg/kg single dose, plasma): 6.49% | AUC(0-inf) [3, 4]: 32200 ng·h/mL | AUC(0-t) [3, 4]: 31500 ng·h/mL | Cmax [3, 4]: 19800 ng/mL | Tmax [3, 4]: 30 min | AUC(0-inf) [3, 5]: 6490 ng·h/mL | AUC(0-t) [3, 5]: 6070 ng·h/mL | Vd [3, 5]: 0.0967 L/kg | clearance [3, 5]: 2.57 mL/min/kg | bioavailability ([3]; mouse, in vivo, ip, 5 mg/kg): 99%
